Numbers after ± are expanded uncertainties.
Assays:
[1] = refractive index (Na D-line) (dimensionless); settings: 101.33 kPa, Liquid, Standard Abbe refractometry
[2] = 101.33 kPa, Liquid, Vibrating tube method

Row | SMILES | refractive index ([1]; 298.15 K) | refractive index ([1]; 308.15 K) | refractive index ([1]; 318.15 K) | mass density ([2]; 298.15 K) | mass density ([2]; 308.15 K) | mass density ([2]; 318.15 K)
1 | CCc1ccccc1 [ethylbenzene] | 1.4928 ± 0.0005 | 1.4879 ± 0.0005 | 1.4832 ± 0.0005 | 862.7 ± 2 kg/m3 | 853.8 ± 2 kg/m3 | 844.8 ± 2 kg/m3
2 | CCCc1ccccc1 [propylbenzene] | 1.4892 ± 0.0006 | 1.4844 ± 0.0006 | 1.48 ± 0.0006 | 857.9 ± 2.1 kg/m3 | 849.4 ± 2.1 kg/m3 | 840.9 ± 2.1 kg/m3
3 | CCCCCCCC [octane] | 1.3948 ± 0.0005 | 1.3904 ± 0.0005 | 1.3868 ± 0.0005 | 698.6 ± 2 kg/m3 | 690.5 ± 2 kg/m3 | 682.2 ± 2 kg/m3

— the NIST ThermoML archive (doi:10.1016/j.tca.2015.08.023)
